“Also recorded” adds a separate entry of the source. Where a name gives a salt, the structure may show the parent alone.
Tests used:
male mice = test: Acute toxicity by intraperitoneal administration; type: in vivo, mouse; details: i.p.
Description: In the neuropsychopharmacological study which follows, a solution of CRL 41 153 in distilled water (pH 1.5) was administered intraperitoneally in a volume of 20 ml/kg to male mice and 5 ml/kg to male rats.

[1] = pH of solutions in distilled water; type: physicochemical; details: administered solution in distilled water, concentration not given
Description: The neuropsychopharmacological study was undertaken according to the procedures described above for CRL 41 153, CRL 41 213 being adminstered intraperitoneally, in solution in distilled water, in a volume of 20 ml/kg to male mice and a volume of 5 ml/kg to male rats, and the pH of the injected solution varying with the concentration of CRL 41 213 according to the data given in Table II below.

mice [2] = test: Intergroup aggressiveness; type: in vivo, mouse; details: i.p.
Description: After they have stayed for 3 weeks in the two halves of a cage divided by an opaque partition, groups of 3 mice receive CRL 41 153. Half an hour later, the two groups from the same cage are brought together by removal of the partition, and the number of fights which occur in 10 minutes is noted.

mice [3] = test: Asphyxiant anoxia (gallamine triiodoethylate); type: in vivo, mouse; details: i.p., curarizing agent
Description: Groups of 10 mice receive CRL 41 153 half an hour before the intraperitoneal administration of 32 mg/kg of gallamine triiodoethylate (reference curarizing agent).

mice [4] = test: Interaction with apomorphine in mice; type: in vivo, mouse; details: i.p.
Description: Groups of 6 mice receive CRL 41 153 0.5 hour before the subcutaneous injection of 1 or 16 mg/kg of apomorphine.

CNS = test: Complementary tests by oral (gastric) administration; type: in vivo

CC(C)NC(C)C(=O)c1ccc(N)cc1 (stereo not shown) [CRL 41 153, 1-(4-aminophenyl)-2-isopropylaminopropanone dihydrochloride]
LD0 (maximum non-lethal dose) (male mice): greater than 64 mg/kg | LD60 (male mice): about 128 mg/kg | pH [1]: 1.5 | Number of fights / intergroup aggressiveness (mice [2]): at a dose of 8 mg/kg, CRL 41 153 reduces the number of fights | Time taken for convulsions to occur (mice [3]): at a dose of 32 mg/kg, CRL 41 153 reduces the time taken for convulsions to occur | Time taken for death to occur (mice [3]): does not change the time taken for death to occur | Effect on hypothermia induced by apomorphine (mice [4]): at doses of 2 mg/kg, 8 mg/kg and 32 mg/kg, CRL 41 153 (which is hyperthermic at the said doses) opposes the hypothermia induced by apomorphine | Effect on righting behavior and stereotypies induced by apomorphine (mice [4]): without modifying the righting behavior and stereotypy behavior | Hypothermia induced by apomorphine (CNS; gastric): antagonism of the hypothermia induced by apomorphine | Motility (CNS; gastric): hypermotility | Sleep induced by barbital (CNS; gastric): reduction in the sleep induced by barbital | Action on gastric (oral) administration compared with intraperitoneal (CNS; gastric vs i.p., dihydrochloride): very active substance; also recorded: same types of action on gastric administration as after intraperitoneal administration | minimal effective dose (CNS; po, gastric, read-out: Dose as from which antidepressant and stimulant and/or arousing effects appear): ≥ 4 mg/kg
